Experiments:
[1] = biological target: GSPT1 (Homo sapiens (Human), UniProt P15170+Q96SW2); experiment: Western blot, substrate protein expression in hPBMC: GSPT1; assay type: cell-based; details: hPBMC, compound 500 nM, 24 hours, Western blot
In short: (§1)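 hPBMC, 1×10^6 cells/mL, 24 h compound exposure; RIPA lysis, BCA protein assay, SDS-PAGE, NC membrane immunoblot. Densitometry vs internal control → % protein remaining; degradation % = 100% − remaining; DC50 = conc. at 50% of DMSO band signal.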

[2] = biological target: IKZF1 (Homo sapiens (Human), UniProt Q13422+Q96SW2); experiment: Western blot, substrate protein expression in hPBMC: IKZF1; assay type: cell-based; details: hPBMC, compound 500 nM, 24 hours, Western blot
Sequence of IKZF1 (Q13422 whole entry): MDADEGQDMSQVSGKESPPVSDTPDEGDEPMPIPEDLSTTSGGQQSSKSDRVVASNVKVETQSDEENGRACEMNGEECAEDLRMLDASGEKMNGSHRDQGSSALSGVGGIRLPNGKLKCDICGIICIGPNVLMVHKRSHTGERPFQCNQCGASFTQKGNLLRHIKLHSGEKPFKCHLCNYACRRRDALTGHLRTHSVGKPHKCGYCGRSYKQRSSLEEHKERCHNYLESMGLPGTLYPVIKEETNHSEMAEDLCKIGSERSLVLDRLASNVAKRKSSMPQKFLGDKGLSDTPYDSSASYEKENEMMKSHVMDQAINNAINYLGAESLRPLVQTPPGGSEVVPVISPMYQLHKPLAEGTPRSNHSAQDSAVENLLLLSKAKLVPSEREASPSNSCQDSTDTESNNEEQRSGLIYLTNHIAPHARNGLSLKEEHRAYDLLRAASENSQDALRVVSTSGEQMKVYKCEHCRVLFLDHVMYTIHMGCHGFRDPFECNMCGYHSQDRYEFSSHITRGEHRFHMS
Sequence of IKZF1 (Q96SW2 whole entry): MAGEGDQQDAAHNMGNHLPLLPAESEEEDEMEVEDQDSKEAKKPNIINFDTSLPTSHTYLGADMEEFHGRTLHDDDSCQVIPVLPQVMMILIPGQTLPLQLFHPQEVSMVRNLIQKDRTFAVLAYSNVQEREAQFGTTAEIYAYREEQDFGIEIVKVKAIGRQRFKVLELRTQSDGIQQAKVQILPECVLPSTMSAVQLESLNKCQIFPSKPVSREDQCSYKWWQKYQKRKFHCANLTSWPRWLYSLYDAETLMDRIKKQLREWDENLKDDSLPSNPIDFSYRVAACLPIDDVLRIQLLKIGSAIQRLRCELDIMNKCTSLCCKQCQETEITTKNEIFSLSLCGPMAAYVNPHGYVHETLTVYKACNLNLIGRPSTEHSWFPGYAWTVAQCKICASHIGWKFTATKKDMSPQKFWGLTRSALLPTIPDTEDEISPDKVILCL
Sequence of IKZF1 (Q16531 whole entry partner): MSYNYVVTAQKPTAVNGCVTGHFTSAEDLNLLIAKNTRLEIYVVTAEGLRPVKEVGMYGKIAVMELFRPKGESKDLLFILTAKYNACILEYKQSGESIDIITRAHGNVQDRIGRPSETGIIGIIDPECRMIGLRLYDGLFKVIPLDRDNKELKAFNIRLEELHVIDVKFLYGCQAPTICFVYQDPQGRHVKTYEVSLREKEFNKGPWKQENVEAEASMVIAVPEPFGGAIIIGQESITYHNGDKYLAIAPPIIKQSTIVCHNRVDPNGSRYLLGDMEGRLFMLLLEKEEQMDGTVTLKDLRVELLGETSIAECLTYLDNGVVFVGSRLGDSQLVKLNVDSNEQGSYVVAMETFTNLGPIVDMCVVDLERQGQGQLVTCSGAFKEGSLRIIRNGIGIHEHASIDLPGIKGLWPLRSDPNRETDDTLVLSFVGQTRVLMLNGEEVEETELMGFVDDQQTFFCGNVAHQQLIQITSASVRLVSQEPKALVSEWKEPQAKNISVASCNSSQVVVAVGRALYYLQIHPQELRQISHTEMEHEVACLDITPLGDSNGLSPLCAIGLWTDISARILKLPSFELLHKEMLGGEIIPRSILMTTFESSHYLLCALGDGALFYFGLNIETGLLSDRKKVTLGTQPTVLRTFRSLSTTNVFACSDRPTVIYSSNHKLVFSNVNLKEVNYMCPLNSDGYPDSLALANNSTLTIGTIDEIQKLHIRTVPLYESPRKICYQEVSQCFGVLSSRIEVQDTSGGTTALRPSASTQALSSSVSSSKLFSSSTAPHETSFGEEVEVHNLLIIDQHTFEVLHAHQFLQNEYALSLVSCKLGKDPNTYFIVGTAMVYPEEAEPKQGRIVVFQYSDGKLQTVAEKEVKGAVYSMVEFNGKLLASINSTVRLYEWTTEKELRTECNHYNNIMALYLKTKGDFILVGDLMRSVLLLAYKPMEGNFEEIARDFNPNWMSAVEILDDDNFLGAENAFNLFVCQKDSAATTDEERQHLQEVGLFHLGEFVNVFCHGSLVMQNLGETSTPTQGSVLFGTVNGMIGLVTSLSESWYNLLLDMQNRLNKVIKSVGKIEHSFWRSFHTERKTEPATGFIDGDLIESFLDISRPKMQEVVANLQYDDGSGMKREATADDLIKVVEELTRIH
In short: as §1

[3] = biological target: IKZF3 (Homo sapiens (Human), UniProt Q96SW2+Q9UKT9); experiment: Western blot, substrate protein expression in hPBMC: IKZF3; assay type: cell-based; details: hPBMC, compound 500 nM, 24 hours, Western blot
Sequence of IKZF3 (Q9UKT9 whole entry): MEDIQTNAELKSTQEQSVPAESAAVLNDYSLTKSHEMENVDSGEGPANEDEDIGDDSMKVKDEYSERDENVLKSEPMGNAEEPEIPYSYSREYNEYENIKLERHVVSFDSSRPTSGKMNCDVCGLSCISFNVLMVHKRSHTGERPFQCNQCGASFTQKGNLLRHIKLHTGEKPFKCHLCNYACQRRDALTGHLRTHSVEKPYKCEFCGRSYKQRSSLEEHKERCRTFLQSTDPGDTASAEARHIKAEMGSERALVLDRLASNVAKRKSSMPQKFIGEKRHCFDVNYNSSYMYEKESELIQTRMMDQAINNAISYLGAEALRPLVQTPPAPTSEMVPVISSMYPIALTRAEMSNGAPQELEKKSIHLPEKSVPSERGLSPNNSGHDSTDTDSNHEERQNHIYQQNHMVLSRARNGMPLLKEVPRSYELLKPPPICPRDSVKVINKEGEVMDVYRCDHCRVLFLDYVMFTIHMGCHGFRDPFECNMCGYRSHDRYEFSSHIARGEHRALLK
Sequence of IKZF3 (Q96SW2 whole entry): as the sequence (Q96SW2 whole entry) above
Sequence of IKZF3 (Q16531 whole entry partner): as the sequence (Q16531 whole entry partner) above
In short: as §1

[4] = biological target: human Cereblon WT GST-tagged protein (Homo sapiens (Human), UniProt Q96SW2); experiment: CRBN-binding affinity, HTRF (CEREBLON BINDING kit, CISBIO); details: HTRF inhibitory activity
Sequence of human Cereblon WT GST-tagged protein (Q96SW2 whole entry): as the sequence (Q96SW2 whole entry) above
In short: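 Compounds were mixed with GST-tagged human Cereblon WT protein, then with Thalidomide-Red tracer and GST Eu antibody, and binding was read by HTRF. Inhibition rate was calculated from 620 nm emission relative to blank control wells (no protein) and solvent control wells.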

Sequence of GSPT1 (P15170 whole entry): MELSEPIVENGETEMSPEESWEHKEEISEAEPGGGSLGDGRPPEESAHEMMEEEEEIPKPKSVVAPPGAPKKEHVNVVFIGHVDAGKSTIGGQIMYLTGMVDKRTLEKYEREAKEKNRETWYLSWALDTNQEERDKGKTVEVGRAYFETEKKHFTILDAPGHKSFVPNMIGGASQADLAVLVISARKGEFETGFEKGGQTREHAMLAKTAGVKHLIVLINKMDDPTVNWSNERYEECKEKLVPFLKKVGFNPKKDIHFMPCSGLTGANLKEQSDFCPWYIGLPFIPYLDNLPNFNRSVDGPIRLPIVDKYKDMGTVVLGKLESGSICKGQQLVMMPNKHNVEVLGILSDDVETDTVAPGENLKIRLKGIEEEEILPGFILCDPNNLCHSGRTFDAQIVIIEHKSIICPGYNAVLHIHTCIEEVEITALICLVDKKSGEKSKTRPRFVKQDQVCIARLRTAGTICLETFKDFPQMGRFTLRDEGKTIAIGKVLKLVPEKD
Sequence of GSPT1 (Q96SW2 whole entry): as the sequence (Q96SW2 whole entry) above
Sequence of GSPT1 (Q16531 whole entry partner): as the sequence (Q16531 whole entry partner) above

SMILES | IC50 [4] | substrate protein remaining % GSPT1 [1] | substrate protein remaining % IKZF1 [2] | substrate protein remaining % IKZF3 [3]
O=C1CCC(N2Cc3c(ccc(CN4CCC5(CCN(C(c6ccccc6)c6ccccc6)CC5)C4)c3F)C2=O)C(=O)N1 (centres unmarked) [GT-05970, 3-(5-((8-benzhydryl-2,8-diazaspiro[4.5]decan-2-yl)methyl)-4-fluoro-1-oxoisoindolin-2-yl)piperidine-2,6-dione] | 1000 to 1900 nM | A (A represents 0% ≤ substrate protein remaining % ≤ 50%) | B (B represents substrate protein remaining % > 50%) | B (B represents substrate protein remaining % > 50%)
O=C1CCC(N2Cc3c(CN4CCC5(CCN(C(c6ccccc6)c6ccccc6)CC5)C4)cccc3C2=O)C(=O)N1 (centres unmarked) [GT-05973, 3-(4-((8-benzhydryl-2,8-diazaspiro[4.5]decan-2-yl)methyl)-1-oxoisoindolin-2-yl)piperidine-2,6-dione] | 1000 to 1900 nM | A (A represents 0% ≤ substrate protein remaining % ≤ 50%) | B (B represents substrate protein remaining % > 50%) | A (A represents 0% ≤ substrate protein remaining % ≤ 50%)
O=C1CCC(N2C(=O)c3ccc(N4CC5CCC4CN5C(c4ccccc4)c4ccccc4)cc3C2=O)C(=O)N1 (centres unmarked) [GT-05976, 5-(5-benzhydryl-2,5-diazabicyclo[2.2.2]octan-2-yl)-2-(2,6-dioxopiperidin-3-yl) isoindoline-1,3-dione] | < 500 nM | A (A represents 0% ≤ substrate protein remaining % ≤ 50%) | B (B represents substrate protein remaining % > 50%) | B (B represents substrate protein remaining % > 50%)
O=C1CCC(N2Cc3cc(C(=O)N4CC5CCC(C4)N5C(c4ccccc4)c4ccccc4)ccc3C2=O)C(=O)N1 (centres unmarked) [GT-05980, 3-(5-(8-benzhydryl-3,8-diazabicyclo[3.2.1]octane-3-carbonyl)-1-oxoisoindolin-2-yl)piperidine-2,6-dione] | 500 to 1000 nM | A (A represents 0% ≤ substrate protein remaining % ≤ 50%) | A (A represents 0% ≤ substrate protein remaining % ≤ 50%) | B (B represents substrate protein remaining % > 50%)
O=C1CCC(N2Cc3cc(C(=O)N4CC5(CCN(C(c6ccccc6)c6ccccc6)CC5)C4)ccc3C2=O)C(=O)N1 (centres unmarked) [GT-05988, 3-(5-(7-benzhydryl-2,7-diazaspiro[3.5]nonane-2-carbonyl)-1-oxoisoindolin-2-yl)piperidine-2,6-dione] | < 500 nM | A (A represents 0% ≤ substrate protein remaining % ≤ 50%) | B (B represents substrate protein remaining % > 50%) | B (B represents substrate protein remaining % > 50%)
O=C1CCC(N2Cc3c(CN4CCC5(CC4)CCN(C(c4ccccc4)c4ccccc4)CC5)cccc3C2=O)C(=O)N1 (centres unmarked) [GT-06027, 3-(4-((9-benzhydryl-3,9-diazaspiro[5.5]undecan-3-yl)methyl)-1-oxoisoindolin-2-yl)piperidine-2,6-dione] | 1000 to 1900 nM | A (A represents 0% ≤ substrate protein remaining % ≤ 50%) | B (B represents substrate protein remaining % > 50%) | B (B represents substrate protein remaining % > 50%)
O=C1CCC(N2Cc3c(ccc(CN4CC5CN(C(c6ccccc6)c6ccccc6)CC5C4)c3F)C2=O)C(=O)N1 (centres unmarked) [GT-06044, 3-(5-((5-benzhydrylhexahydropyrrolo[3,4-c]pyrrol-2 (1H)-yl)methyl)-4-fluoro-1-oxoisoindolin-2-yl)piperidine-2,6-dione] | < 500 nM | A (A represents 0% ≤ substrate protein remaining % ≤ 50%) | B (B represents substrate protein remaining % > 50%) | A (A represents 0% ≤ substrate protein remaining % ≤ 50%)
O=C1CCC(N2Cc3cc(CN4CC5CN(C(c6ccccc6)c6ccccc6)CC5C4)cc(F)c3C2=O)C(=O)N1 (centres unmarked) [GT-06045, 3-(5-((5-benzhydrylhexahydropyrrolo[3,4-c]pyrrol-2 (1H)-yl)methyl)-7-fluoro-1-oxoisoindolin-2-yl)piperidine-2,6-dione] | < 500 nM | A (A represents 0% ≤ substrate protein remaining % ≤ 50%) | B (B represents substrate protein remaining % > 50%) | B (B represents substrate protein remaining % > 50%)
O=C1CCC(N2Cc3cc(CN4CC5CN(C(c6ccccc6)c6ccccc6)CC5C4)ccc3C2=O)C(=O)N1 (centres unmarked) [GT-06050, 3-(5-((5-benzhydrylhexahydropyrrolo[3,4-c]pyrrol-2 (1H)-yl)methyl)-1-oxoisoindolin-2-yl)piperidine-2,6-dione] | < 500 nM | A (A represents 0% ≤ substrate protein remaining % ≤ 50%) | B (B represents substrate protein remaining % > 50%) | B (B represents substrate protein remaining % > 50%)

Second part, led by results:

IC50 [4] | SMILES | substrate protein remaining % GSPT1 [1] | substrate protein remaining % IKZF1 [2] | substrate protein remaining % IKZF3 [3]
1000 to 1900 nM | O=C1CCC(N2Cc3cc(CN4CCC5(CCN(C(c6ccccc6)c6ccccc6)CC5)C4)c(F)cc3C2=O)C(=O)N1 (centres unmarked) [GT-05971, 3-(5-((8-benzhydryl-2,8-diazaspiro[4.5]decan-2-yl)methyl)-6-fluoro-1-oxoisoindolin-2-yl)piperidine-2,6-dione] | A (A represents 0% ≤ substrate protein remaining % ≤ 50%) | B (B represents substrate protein remaining % > 50%) | B (B represents substrate protein remaining % > 50%)
< 500 nM | O=C1CCC(N2Cc3cc(C(=O)N4CCN(C5c6ccccc6-c6ccccc65)CC4)ccc3C2=O)C(=O)N1 (centres unmarked) [GT-05986, 3-(5-(4-(9H-fluoren-9-yl)piperazine-1-carbonyl)-1-oxoisoindolin-2-yl)piperidine-2,6-dione] | A (A represents 0% ≤ substrate protein remaining % ≤ 50%) | B (B represents substrate protein remaining % > 50%) | B (B represents substrate protein remaining % > 50%)
500 to 1000 nM | C[C@@H]1CN(C(c2ccccc2)c2ccccc2)CCN1Cc1cc2c(cc1F)C(=O)N(C1CCC(=O)NC1=O)C2 (stereo partly drawn) [GT-06046, 3-(5-(((R)-4-benzhydryl-2-methylpiperazin-1-yl)methyl)-6-fluoro-1-oxoisoindolin-2-yl)piperidine-2,6-dione] | A (A represents 0% ≤ substrate protein remaining % ≤ 50%) | B (B represents substrate protein remaining % > 50%) | B (B represents substrate protein remaining % > 50%)
< 500 nM | O=C1CCC(N2Cc3cc(CN4CCN(C5c6cc(Cl)ccc6-c6ccc(Cl)cc65)CC4)ccc3C2=O)C(=O)N1 (centres unmarked) [GT-06048, 3-(5-((4-(2,7-dichloro-9H-fluoren-9-yl)piperazin-1-yl)methyl)-1-oxoisoindolin-2-yl)piperidine-2,6-dione] | A (A represents 0% ≤ substrate protein remaining % ≤ 50%) | A (A represents 0% ≤ substrate protein remaining % ≤ 50%) | A (A represents 0% ≤ substrate protein remaining % ≤ 50%)
< 500 nM | O=C1CCC(N2Cc3c(CN4CC5CN(C(c6ccccc6)c6ccccc6)CC5C4)cccc3C2=O)C(=O)N1 (centres unmarked) [GT-06052, 3-(4-((5-benzhydrylhexahydropyrrolo[3,4-c]pyrrol-2 (1H)-yl)methyl)-1-oxoisoindolin-2-yl)piperidine-2,6-dione] | A (A represents 0% ≤ substrate protein remaining % ≤ 50%) | B (B represents substrate protein remaining % > 50%) | B (B represents substrate protein remaining % > 50%)
500 to 1000 nM | CC1(C)CN(C(=O)c2ccc3c(c2)CN(C2CCC(=O)NC2=O)C3=O)CCN1C(c1ccccc1)c1ccccc1 (centres unmarked) [GT-06061, 3-(5-(4-benzhydryl-3,3-dimethylpiperazine-1-carbonyl)-1-oxoisoindolin-2-yl)piperidine-2,6-dione] | A (A represents 0% ≤ substrate protein remaining % ≤ 50%) | B (B represents substrate protein remaining % > 50%) | B (B represents substrate protein remaining % > 50%)
500 to 1000 nM | O=C1CCC(N2Cc3cc(C(=O)N4CCC5(CCN(C(c6ccccc6)c6ccccc6)CC5)C4)ccc3C2=O)C(=O)N1 (centres unmarked) [GT-06063, 3-(5-(8-benzhydryl-2,8-diazaspiro[4.5]decane-2-carbonyl)-1-oxoisoindolin-2-yl)piperidine-2,6-dione] | A (A represents 0% ≤ substrate protein remaining % ≤ 50%) | B (B represents substrate protein remaining % > 50%) | B (B represents substrate protein remaining % > 50%)
< 500 nM | O=C1CCC(N2Cc3cc(C(=O)N4CCC5(CC4)CCN(C(c4ccccc4)c4ccccc4)CC5)ccc3C2=O)C(=O)N1 (centres unmarked) [GT-06065, 3-(5-(9-benzhydryl-3,9-diazaspiro[5.5]undecane-3-carbonyl)-1-oxoisoindolin-2-yl)piperidine-2,6-dione] | A (A represents 0% ≤ substrate protein remaining % ≤ 50%) | B (B represents substrate protein remaining % > 50%) | B (B represents substrate protein remaining % > 50%)

Reference: US20250320193A1, “OXOISOINDOLINYL SUBSTITUTED PIPERIDINEDIONE DERIVATIVE AND USE THEREOF” (GLUETACS THERAPEUTICS (SHANGHAI) CO., LTD., priority 2022, published 2025)
